This is an account of results in US20110207773A1, “NOVEL PHENYL-QUINOLINE-CARBOXYLIC ACID PYRIDINE DERIVATIVES USEFUL AS MODULATORS OF NICOTINIC ACETYLCHOLINE RECEPTORS” (NEUROSEARCH A/S, priority 2008, published 2011).

pEC50: −log10 of the molar value.

A word on the pEC50: it is the negative decadic logarithm of the EC50, by convention in mol/L. By melting point is commonly meant the temperature, or range, at which the solid turns liquid.

For data set [1], the target named is T1, wild-type nAChR α7 receptors (Homo sapiens, UniProt P36544).
T1 construct: expressed in transfected cells; host or cells: Xenopus laevis oocytes
T1 sequence (P36544 23-502): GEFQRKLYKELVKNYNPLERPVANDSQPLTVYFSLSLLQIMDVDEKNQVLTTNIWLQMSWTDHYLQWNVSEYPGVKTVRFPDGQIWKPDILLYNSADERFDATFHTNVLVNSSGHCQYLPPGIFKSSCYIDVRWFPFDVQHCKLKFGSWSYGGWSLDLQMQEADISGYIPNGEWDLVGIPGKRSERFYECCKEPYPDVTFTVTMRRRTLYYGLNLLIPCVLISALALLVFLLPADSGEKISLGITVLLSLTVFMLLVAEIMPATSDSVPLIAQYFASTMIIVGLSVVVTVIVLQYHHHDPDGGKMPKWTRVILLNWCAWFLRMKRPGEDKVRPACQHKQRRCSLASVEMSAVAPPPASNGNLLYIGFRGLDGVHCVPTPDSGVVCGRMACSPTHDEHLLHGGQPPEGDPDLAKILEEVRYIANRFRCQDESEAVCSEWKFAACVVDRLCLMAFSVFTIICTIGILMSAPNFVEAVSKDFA
The experiment in a line: Positive modulation of nAChR α7 currents in Xenopus laevis oocytes, two-electrode voltage clamp. It counts as cell-based. The following applies: nAChR α7 expressed in Xenopus laevis oocytes, clamped at −60 mV, 100 μM acetylcholine; for Emax: (test-control)/control×100%, read-out: calculated EC50 Imax (maximal modulation of the control response); for pEC50: test compound 0.01-31.6 μM, read-out: calculated EC50 (positive modulation of acetylcholine-induced current). As for the experimental part:
In this example the positive modulation of wild-type nAChR α7 receptors by Compounds 4 and 5, representative of the invention, was determined using nAChR α7 receptors heterologously expressed in Xenopus laevis oocytes.
The electrical current through the nAChR α7 channel was measured using conventional two-electrode voltage clamp and nAChR α7 currents were activated by applying pulses of agonist-containing solution onto the nAChR α7 expressing oocyte.
In brief, the oocytes were placed in a recording chambers and continuously super-fused with an Oocyte Ringer (OR) solution containing 90 mM NaCl, 2.5 mM KCl, 2.5 mM CaCl2, 1 mM MgCl2 and 5 mM HEPES (pH adjusted to 7.4). The oocytes were clamped at −60 mV and currents were induced by applying 20 s pulses of 100 μM acetylcholine dissolved in OR. The intervals between the acetylcholine applications were 5 minutes, during which the oocytes were washed with OR. The first three applications were control applications to insure a constant response level of 100 μM acetylcholine. For the subsequent test applications, increasing concentrations (0.01-31.6 μM) of the test compound were applied 30 s before and during the acetylcholine (100 μM) application, which caused a robust increase in the acetylcholine-induced current amplitude.
The positive modulation in the presence of Compound 4 was calculated as (test-control)/control×100% and the concentration response curve for this positive modulation was fitted to the sigmoidal logistic equation: I=Imax/(1+(EC50/[compound])^n), where Imax represents the maximal modulation of the control response, EC50 is the concentration causing a half maximal response, and n is the slope coefficient.

On to `COc1ccc(-c2cc(C(=O)Nc3cccc(F)n3)c3ccccc3n2)cc1` [Compound 4, 2-(4-Methoxy-phenyl)-quinoline-4-carboxylic acid (6-fluoro-pyridin-2-yl)-amide], for which, in data set [1], the Emax was 283% and the pEC50 is 5.43.
Regarding `COc1ccc(-c2cc(C(=O)Nc3cccc(F)n3)c3ccccc3n2)cc1OC` [Compound 5, 2-(3,4-Dimethoxy-phenyl)-quinoline-4-carboxylic acid (6-fluoro-pyridin-2-yl)-amide], in data set [1], the Emax is 197% and the pEC50 was 5.92.
Turning to `Cc1ccc(NC(=O)c2cc(-c3ccc(Br)cc3)nc3ccccc23)nc1` [Compound 7, 2-(4-Bromo-phenyl)-quinoline-4-carboxylic acid (5-methyl-pyridin-2-yl)-amide], the melting point was in the range of 182.4 to 183.7 °C.
In turn, `COc1ccc(-c2cc(C(=O)Nc3cccc(F)n3)c3cccc(F)c3n2)cc1` [Compound 8, 8-Fluoro-2-(4-methoxy-phenyl)-quinoline-4-carboxylic acid (6-fluoro-pyridin-2-yl)-amide] returned a melting point of 201.8 to 202.8 °C.
`O=C(Nc1cccc(F)n1)c1cc(-c2ccc(O)cc2)nc2c(F)cccc12` [Compound 9, 8-Fluoro-2-(4-hydroxy-phenyl)-quinoline-4-carboxylic acid (6-fluoro-pyridin-2-yl)-amide] gave a melting point of 254 to 256 °C.
`COc1ccc(-c2cc(C(=O)Nc3cccc(F)n3)c3cc(F)ccc3n2)cc1` [Compound 10, 6-Fluoro-2-(4-methoxy-phenyl)-quinoline-4-carboxylic acid (6-fluoro-pyridin-2-yl)-amide] had a melting point of 161.2 to 162.9 °C.
On the same count and under the same terms, the same measure for `O=C(Nc1cccc(F)n1)c1cc(-c2ccc3c(c2)OCCO3)nc2ccccc12` [Compound 13, 2-(2,3-Dihydro-benzo[1,4]dioxin-6-yl)-quinoline-4-carboxylic acid (6-fluoro-pyridin-2-yl)-amide]: 209.9 to 210.6 °C.
